Assays:
[1] = tested on: Staphylococcus aureus; experiment: Antibacterial activity against Staphylococcus aureus ATCC 25923 assessed as reduction in microbial growth after 16 to 18 hrs by microbroth dilution method; type: functional; conditions: time 16-18 hrs
[2] = tested on: Staphylococcus aureus; experiment: Antibacterial activity against methicillin resistant Staphylococcus aureus ATCC 43300 assessed as reduction in microbial growth after 16 to 18 hrs by microbroth dilution method; type: functional; conditions: time 16-18 hrs
[3] = tested on: Staphylococcus aureus; experiment: Antibacterial activity against methicillin resistant Staphylococcus aureus ATCC 62202 assessed as reduction in microbial growth after 16 to 18 hrs by microbroth dilution method; type: functional; conditions: time 16-18 hrs
[4] = tested on: Staphylococcus aureus; experiment: Antibacterial activity against methicillin resistant Staphylococcus aureus ATCC 52056 assessed as reduction in microbial growth after 16 to 18 hrs by microbroth dilution method; type: functional; conditions: time 16-18 hrs
[5] = tested on: Staphylococcus aureus; experiment: Antibacterial activity against methicillin resistant Staphylococcus aureus ATCC513045 assessed as reduction in microbial growth after 16 to 18 hrs by microbroth dilution method; type: functional; conditions: time 16-18 hrs
[6] = tested on: Staphylococcus aureus; experiment: Antibacterial activity against methicillin resistant Staphylococcus aureus ATCC515992 assessed as reduction in microbial growth after 16 to 18 hrs by microbroth dilution method; type: functional; conditions: time 16-18 hrs
[7] = tested on: Staphylococcus aureus; experiment: Antibacterial activity against methicillin resistant Staphylococcus aureus ATCC49800 assessed as reduction in microbial growth after 16 to 18 hrs by microbroth dilution method; type: functional; conditions: time 16-18 hrs
[8] = tested on: Staphylococcus aureus; experiment: Antibacterial activity against methicillin resistant Staphylococcus aureus ATCC49025 assessed as reduction in microbial growth after 16 to 18 hrs by microbroth dilution method; type: functional; conditions: time 16-18 hrs
[9] = tested on: Staphylococcus aureus; experiment: Antibacterial activity against methicillin resistant Staphylococcus aureus ATCC48073 assessed as reduction in microbial growth after 16 to 18 hrs by microbroth dilution method; type: functional; conditions: time 16-18 hrs
[10] = tested on: Staphylococcus aureus; experiment: Antibacterial activity against methicillin resistant Staphylococcus aureus ATCC48966 assessed as reduction in microbial growth after 16 to 18 hrs by microbroth dilution method; type: functional; conditions: time 16-18 hrs
[11] = tested on: Staphylococcus aureus; experiment: Antibacterial activity against methicillin resistant Staphylococcus aureus ATCC49008 assessed as reduction in microbial growth after 16 to 18 hrs by microbroth dilution method; type: functional; conditions: time 16-18 hrs
[12] = tested on: Staphylococcus aureus; experiment: Antibacterial activity against methicillin resistant Staphylococcus aureus ATCC48706 assessed as reduction in microbial growth after 16 to 18 hrs by microbroth dilution method; type: functional; conditions: time 16-18 hrs
[13] = tested on: Escherichia coli; experiment: Antibacterial activity against Escherichia coli ATCC25922 assessed as reduction in microbial growth after 16 to 18 hrs by microbroth dilution method; type: functional; conditions: ATCC 25922, time 16-18 hrs
[14] = tested on: Pseudomonas aeruginosa; experiment: Antibacterial activity against Pseudomonas aeruginosa ATCC27853 assessed as reduction in microbial growth after 16 to 18 hrs by microbroth dilution method; type: functional; conditions: time 16-18 hrs
[15] = tested on: Enterococcus faecalis; experiment: Antibacterial activity against Enterococcus faecalis ATCC29212 assessed as reduction in microbial growth after 16 to 18 hrs by microbroth dilution method; type: functional; conditions: ATCC 29212, time 16-18 hrs
[16] = tested on: RAW264.7; experiment: Cytotoxicity against mouse RAW264.7 cells assessed as cell viability at 10 ug/ml measured after 24 hrs by MTT assay; type: cell-based; conditions: raw264.7, 24 h, dose 10 µg/ml
[17] = tested on: L02; experiment: Cytotoxicity against human L02 cells assessed as cell viability at 10 ug/ml measured after 24 hrs by MTT assay; type: cell-based; conditions: l02, 24 h, dose 10 µg/ml

| SMILES | MIC [1] [µg/mL] | MIC [2] [µg/mL] | MIC [3] [µg/mL] | MIC [4] [µg/mL] | MIC [5] [µg/mL] | MIC [6] [µg/mL] | MIC [7] [µg/mL] | MIC [8] [µg/mL] | MIC [9] [µg/mL] | MIC [10] [µg/mL] | MIC [11] [µg/mL] | MIC [12] [µg/mL] | MIC [13] [µg/mL] | MIC [14] [µg/mL] | MIC [15] [µg/mL] | Activity [16] | Activity [17] |
| --- | --- | --- | --- | --- | --- | --- | --- | --- | --- | --- | --- | --- | --- | --- | --- | --- | --- |
| CC(C)=CCc1c(OC2CCC2)cc(/C=C/c2ccc(F)cc2)c(C(=O)O)c1O | 2 | 2 | 4 | 2 | 2 | 4 | 2 | 2 | 2 | 2 | 2 | 2 | > 32 | > 32 | > 32 | Toxic | Toxic |
| CC(C)=CCc1c(OC(C)C)cc(/C=C/c2ccc(C(F)(F)F)cc2)c(C(=O)O)c1O | 2 | 1 | 2 | 2 | 2 | 2 | 2 | 2 | 2 | 2 | 2 | 2 | > 32 | > 32 | > 32 | Toxic | Toxic |
| CC(C)=CCc1c(OCC2CC2)cc(/C=C/c2ccc(F)cc2)c(C(=O)O)c1O | 2 | 2 | 4 | 2 | 2 | 2 | 2 | 2 | 2 | 2 | 2 | 2 | > 32 | > 32 | > 32 | Toxic | Toxic |
| CCOc1cc(/C=C/c2ccc(C(F)(F)F)cc2)c(C(=O)O)c(O)c1CC=C(C)C | 2 | 1 | 1 | 1 | 2 | 2 | 2 | 2 | 2 | 2 | 2 | 2 | > 32 | > 32 | > 32 | Toxic | Toxic |
| CC(C)=CCc1c(OCc2ccccc2)cc(/C=C/c2ccc(C(F)(F)F)cc2)c(C(=O)O)c1O | 4 | 2 | 2 | 2 | 2 | 2 | 4 | 4 | 4 | 4 | 4 | 4 | > 32 | > 32 | > 32 | Toxic | Toxic |
| CC(C)=CCc1c(OCCCF)cc(/C=C/c2ccc(C(F)(F)F)cc2)c(C(=O)O)c1O | 2 | 2 | 4 | 2 | 2 | 4 | 4 | 4 | 4 | 4 | 4 | 4 | > 32 | > 32 | > 32 | Toxic | Toxic |
| CC(C)=CCc1c(OCCC(F)(F)F)cc(/C=C/c2ccc(C(F)(F)F)cc2)c(C(=O)O)c1O | 2 | 2 | 2 | 2 | 2 | 2 | 4 | 4 | 4 | 4 | 4 | 4 | > 32 | > 32 | > 32 | Toxic | Toxic |
| CC(C)=CCc1c(OCc2ccccc2)cc(/C=C/c2ccc(F)cc2)c(C(=O)O)c1O | 4 | 32 | 4 | 4 | 4 | 4 | 4 | 4 | 4 | 4 | 4 | 4 | > 32 | > 32 | > 32 | Toxic | Toxic |

From ChEMBL document CHEMBL4828717, “Synthetic cajaninstilbene acid derivatives eradicate methicillin-resistant Staphylococcus aureus persisters and biofilms” (Eur J Med Chem, 2021)
